Measured values as given in patent publication US9790169B2, “IDO inhibitors” (BRISTOL-MYERS SQUIBB COMPANY, priority 2015, dated 2017).

Molecular target: human IDO1 (Homo sapiens, UniProt P14902)
Assay: Assessment of human IDO-1 inhibitory activity in Hela cells (Interferon-gamma stimulated HeLa cells, Ehrlich reagent, absorbance 490 nm)
Assay type: cell-based
Design: endogenous in cells; host or cells: HeLa cells stimulated with interferon-gamma
Conditions: Hela Human IDO-1 cellular assay
Experimental: Exemplary compounds were tested for inhibition of IDO activity.
Assessment of Human IDO-1 Inhibitory Activity in Hela Cells
HeLa cells were seeded at 20,000 cells per 30 μL per well with RPMI/phenol red free media containing 10% FBS in a 384-well tissue culture plate (black with clear bottoms). 50 nL of compound was added to cells and incubated at 37° C. for one hour. 20 μL of the recombinant human Interferon-gamma (R&D System, Cat. #285-IF, at final concentration of 10 ng/ml) or recombinant murine Interferon-gamma (PEPROTECH® Inc., Cat. #315-05, final concentration of 5 ng/ml) was added to activate IDO signaling. The cells were incubated for 18 hours in 37° C. incubator with 5% CO2.
Compound treatment was stopped by adding 5 μl trichloroacetic acid to a final concentration of 3%. Subsequently, the cell plate was further incubated at 50° C. for 30 minute. An equal volume supernatant (20 μL) and 2% (w/v) Ehrlich reagent (4-dimethylaminobenzaldehyde) in glacial acetic acid were mixed in a new clear bottom 384-well plate. This plate was incubated at room temperature for 30 minutes. Absorbance at 490 nm was measured on Envision plate reader.
Compound IC50 values were calculated using counts from unstimulated (no INF-gamma treatment) wells as 100% inhibition. INF-gamma treatment without compound treatment as 0% inhibition.

human IDO1, sequence (P14902 whole entry): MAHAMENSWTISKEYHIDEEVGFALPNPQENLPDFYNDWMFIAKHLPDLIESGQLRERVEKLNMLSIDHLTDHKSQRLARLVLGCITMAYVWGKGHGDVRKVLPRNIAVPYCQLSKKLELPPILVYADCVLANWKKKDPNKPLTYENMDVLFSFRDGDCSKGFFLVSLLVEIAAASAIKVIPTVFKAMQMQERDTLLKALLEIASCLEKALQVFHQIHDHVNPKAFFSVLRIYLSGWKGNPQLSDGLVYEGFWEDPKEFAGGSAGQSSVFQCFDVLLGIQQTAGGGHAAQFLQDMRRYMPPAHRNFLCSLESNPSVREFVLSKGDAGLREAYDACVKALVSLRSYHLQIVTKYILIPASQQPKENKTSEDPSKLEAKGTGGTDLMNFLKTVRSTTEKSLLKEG

| Structure (SMILES) | IC50 [µM] |
| --- | --- |
| CCOc1ncc(Nc2cc(C(CC(=O)O)C3CC3)ccc2N(CC)C2CCOCC2)cn1 (single isomer, unassigned) [Example 36, 3-cyclopropyl-3-(3-((2-ethoxypyrimidin-5-yl)amino)-4-(ethyl(tetrahydro-2H-pyran-4-yl)amino)phenyl)propanoic acid] | < 0.05 |
| COCCN(c1ccc(C(COC)CC(=O)O)cc1Nc1ccc(F)cc1)C1CCOCC1 (single isomer, unassigned) [Example 258, 3-(3-((4-fluorophenyl)amino)-4-((2-methoxyethyl)(tetrahydro-2H-pyran-4-yl)amino)phenyl)-4-methoxybutanoic acid] | < 0.05 |
| CCOc1cnc(Nc2cc(C(C)CC(=O)O)ccc2N(CC)C2CCOCC2)cn1 (single isomer, unassigned) [Example 630, 3-(3-((5-ethoxypyrazin-2-yl)amino)-4-(ethyl (tetrahydro-2H-pyran-4-yl)amino)phenyl)butanoic acid] | < 0.05 |
| CCOc1ncc(Nc2cc(C(COC)CC(=O)O)ccc2N2CCC(c3ccccc3)CC2)cn1 (single isomer, unassigned) [Example 1354, 3-(3-((2-ethoxypyrimidin-5-yl)amino)-4-(4-phenylpiperidin-1-yl)phenyl)-4-methoxybutanoic acid] | < 0.005 |
| CCN(c1ccc(C(C)CC(=O)O)cc1Nc1ccc(C#N)cc1)C1CCOCC1 (single isomer, unassigned) [Example 625, 3-(3-((4-cyanophenyl)amino)-4-(ethyl(tetrahydro-2H-pyran-4-yl)amino)phenyl)butanoic acid] | < 0.005 |
| CCC(CC(=O)O)c1ccc(N2C[C@@H]3C[C@H]2CN3C(=O)OC(C)(C)C)c(Nc2ccc(C#N)cc2)c1 (single isomer, unassigned) [Example 443 Diastereomer 2] | < 0.05 |
| CCOc1ncc(Nc2cc([C@H](CC)CC(N)=O)ccc2N(CC)C2CCOCC2)cn1 [Example 1332, (R)-3-(3-((2-Ethoxypyrimidin-5-yl)amino)-4-(ethyl(tetrahydro-2H-pyran-4-yl)amino)phenyl)pentanamide] | > 0.05 |
| CCCN(c1ccc([C@H](CC)CC(=O)O)cc1NC(=O)Nc1ccc(C#N)cc1)C1CCOCC1 (single isomer, unassigned) [Example 556] | < 0.05 |
| CCC1COCCN1c1ccc([C@H](COC)CC(=O)O)cc1Nc1ccc(F)cc1 (single isomer, unassigned) [Example 1309] | < 0.05 |
| CCN(c1ccc([C@@H](COC)CC(=O)O)cc1Nc1ccc(C(F)(F)F)cc1)C1CCOCC1 (single isomer, unassigned) [Example 364] | < 0.005 |
| CCN(c1ccc([C@@H](COC)CC(=O)O)cc1Nc1ccc(C#N)c(OCC(F)F)c1)C1CCOCC1 (single isomer, unassigned) [Example 371] | < 0.05 |
| CCN(c1ccc(C(CC(=O)O)C2CC2)cc1Nc1ccc(C#N)cc1)C1CCOCC1 (single isomer, unassigned) [Example 34, 3-(3-((4-cyanophenyl)amino)-4-(ethyl(tetrahydro-2H-pyran-4-yl)amino)phenyl)-3-cyclopropylpropanoic acid] | < 0.005 |
| CCN(c1ccc(C(CC(=O)O)C2CC2)cc1Nc1ccc(OC)nc1)C1CCS(=O)(=O)CC1 (single isomer, unassigned) [Example 342, 3-cyclopropyl-3-(4-((1,1-dioxidotetrahydro-2H-thiopyran-4-yl)(ethyl)amino)-3-((6-methoxypyridin-3-yl)amino)phenyl)propanoic acid] | < 0.05 |
| CCOc1ncc(Nc2cc([C@H](CC)CNS(=O)(=O)CC)ccc2N(CC)C2CCOCC2)cn1 [Example 1325, (S)-N-(2-(3-((2-Ethoxypyrimidin-5-yl)amino)-4-(ethyl(tetrahydro-2H-pyran-4-yl)amino)phenyl)butyl)ethanesulfonamide] | < 0.05 |
| CCOc1ncc(Nc2cc([C@H](CC)Cc3cnco3)ccc2N(CC)C2CCOCC2)cn1 [Example 1335, (R)-N2-(2-Ethoxypyrimidin-5-yl)-N1-ethyl-4-(1-(oxazol-5-yl)butan-2-yl)-N1-(tetrahydro-2H-pyran-4-yl)benzene-1,2-diamine] | > 0.05 |
| CCN(c1cc(F)c([C@H](COC)CC(=O)O)cc1Nc1ccc(C#N)cc1)C1CCOCC1 (single isomer, unassigned) [Example 850, 3-(5-((4-Cyanophenyl)amino)-4-(ethyl(tetrahydro-2H-pyran-4-yl)amino)-2-fluorophenyl)-4-methoxybutanoic acid] | < 0.005 |
| CCN(c1ccc([C@@H](CC(=O)O)C(F)(F)F)cc1NC(=O)Nc1ccc(Cl)cc1F)C1CCOCC1 (single isomer, unassigned) [Example 1270] | < 0.05 |

| Structure (SMILES) | IC50 [µM] |
| --- | --- |
| COCC(CC(=O)O)c1ccc(N(C)C2CCOCC2)c(Nc2ccc(C#N)cn2)c1 (single isomer, unassigned) [Example 874, 3-(3-((5-cyanopyridin-2-yl)amino)-4-(methyl (tetrahydro-2H-pyran-4-yl)amino)phenyl)-4-methoxybutanoic acid] | < 0.005 |
| CCCN(c1ccc(C(C)(C)CC(=O)O)cc1NC(=O)Nc1ccc(C#N)cc1)C1CCS(=O)(=O)CC1 [Example 190, 3-(3-(3-(4-Cyanophenyl)ureido)-4-((1,1-dioxidotetrahydro-2H-thiopyran-4-yl)(propyl)amino)phenyl)-3-methylbutanoic acid] | > 0.05 |
| CC[C@H](CC(=O)O)c1ccc(N(CC)C2CCOCC2)c(Nc2ccc(Cl)cn2)c1 (single isomer, unassigned) [Example 503] | < 0.005 |
| CCCN(c1ccc(C(CC)CC(=O)O)cc1NC(=O)Nc1ccc(C)cc1)C1CCS(=O)(=O)CC1 (single isomer, unassigned) [Example 14 Enantiomer 1, 3-(4-((1,1-Dioxidotetrahydro-2h-thiopyran-4-yl)(propyl)amino)-3-(3-(p-tolyl)ureido)phenyl)pentanoic acid] | > 0.05 |
| COCC(CC(=O)O)c1ccc(N2CCOC[C@H]2C(C)C)c(NC(=O)Nc2ccc(C#N)cc2)c1 (single isomer, unassigned) [Example 911] | > 0.05 |
| CCC(CC(=O)O)c1ccc(N2CC(O)(c3ccc(F)cc3)C2)c(Nc2ccc(Cl)cc2)c1 (single isomer, unassigned) [Example 1253 E2, 3-(3-((4-Chlorophenyl)amino)-4-(3-(4-fluorophenyl)-3-hydroxyazetidin-1-yl)phenyl)pentanoic acid] | < 0.005 |
| CCN(c1cc(F)c([C@@H](COC)CC(=O)O)cc1NC(=O)Nc1ccc(Cl)cc1F)C1CCOCC1 (single isomer, unassigned) [Example 848, 3-(5-(3-(4-Chloro-2-fluorophenyl)ureido)-4-(ethyl(tetrahydro-2H-pyran-4-yl)amino)-2-fluorophenyl)-4-methoxybutanoic acid] | < 0.005 |
| CCC(CC(=O)O)c1ccc(N2C[C@@H]3C[C@H]2CN3C(=O)OC(C)(C)C)c(Nc2ccc(C#N)cc2)c1 (single isomer, unassigned) [Example 443 Diastereomer 1] | < 0.005 |
| CCOc1ncc(Nc2cc(C(CC)CC(=O)O)ccc2N2CCNCC2)cn1 (single isomer, unassigned) [Example 672, 3-(3-((2-Ethoxypyrimidin-5-yl)amino)-4-(piperazin-1-yl)phenyl)pentanoic acid] | > 0.05 |
| CCN(c1ccc([C@@H](COC)CC(=O)O)cc1Nc1ncc(F)cn1)C1CCOCC1 (single isomer, unassigned) [Example 359] | > 0.05 |
| CCOc1ncc(Nc2cc(C(CC)CC(=O)O)ccc2N2CC(O)(c3ccc(F)cc3)C2)cn1 (single isomer, unassigned) [Example 1256, 3-(3-((2-ethoxypyrimidin-5-yl)amino)-4-(3-(4-fluorophenyl)-3-hydroxyazetidin-1-yl)phenyl)pentanoic acid] | > 0.05 |
| CCOc1ncc(Nc2cc(C(CC)CC(=O)O)ccc2N(CC)C2CCCOC2)cn1 (single isomer, unassigned) [Example 63, 3-(3-((2-ethoxypyrimidin-5-yl)amino)-4-(ethyl(tetrahydro-2H-pyran-3-yl)amino)phenyl)pentanoic acid] | < 0.005 |
| CCOc1ncc(Nc2cc([C@@H](CC)CC(=O)O)ccc2N2C3CCC2CC(c2ccc(F)cc2)C3)cn1 (stereo partly drawn) [Example 1360, (S)-3-(3-((2-Ethoxypyrimidin-5-yl)amino)-4-(3-(4-fluorophenyl)-8-azabicyclo[3.2.1]octan-8-yl)phenyl)pentanoic acid] | < 0.005 |
| CCC1COCCN1c1ccc([C@@H](COC)CC(=O)O)cc1Nc1ccc(C#N)cc1 (single isomer, unassigned) [Example 1295] | < 0.05 |
| COCC(CC(=O)O)c1ccc(N2CCOC(C)(C)C2)c(NC(=O)Nc2ccc(Cl)cc2F)c1 (single isomer, unassigned) [Example 1318 E1, 3-(3-(3-(4-Chloro-2-fluorophenyl)ureido)-4-(2,2-dimethylmorpholino)phenyl)-4-methoxybutanoic acid] | > 0.05 |
| CCN(c1ccc([C@H](COC(C)C)CC(=O)O)cc1Nc1ccc(C#N)cc1)C1CCOCC1 (single isomer, unassigned) [Example 329] | < 0.05 |
| CCC1COCCN1c1ccc([C@@H](COC)CC(=O)O)cc1Nc1ccc(C#N)cn1 (single isomer, unassigned) [Example 1283] | > 0.05 |
